Legend:
[1] = biological target: T1, Oxysterols receptor LXR-alpha (Homo sapiens, UniProt Q13133); format: functional
T1 sequence (Q13133 whole entry): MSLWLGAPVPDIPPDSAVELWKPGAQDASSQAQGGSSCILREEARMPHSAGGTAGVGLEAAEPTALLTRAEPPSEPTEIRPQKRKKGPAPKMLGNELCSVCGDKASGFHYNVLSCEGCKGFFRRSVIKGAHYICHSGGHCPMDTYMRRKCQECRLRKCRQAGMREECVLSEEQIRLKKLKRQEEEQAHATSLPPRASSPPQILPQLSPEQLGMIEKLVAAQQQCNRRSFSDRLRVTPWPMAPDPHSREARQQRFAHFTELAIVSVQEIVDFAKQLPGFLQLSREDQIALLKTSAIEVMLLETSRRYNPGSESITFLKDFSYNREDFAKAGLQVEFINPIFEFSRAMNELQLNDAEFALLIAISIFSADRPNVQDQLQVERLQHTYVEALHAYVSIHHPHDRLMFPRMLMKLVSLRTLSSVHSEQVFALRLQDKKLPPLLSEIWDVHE

[2] = biological target: T2, Nuclear receptor subfamily 1 group I member 3 (Homo sapiens, UniProt Q14994); format: functional
T2 sequence (Q14994 whole entry): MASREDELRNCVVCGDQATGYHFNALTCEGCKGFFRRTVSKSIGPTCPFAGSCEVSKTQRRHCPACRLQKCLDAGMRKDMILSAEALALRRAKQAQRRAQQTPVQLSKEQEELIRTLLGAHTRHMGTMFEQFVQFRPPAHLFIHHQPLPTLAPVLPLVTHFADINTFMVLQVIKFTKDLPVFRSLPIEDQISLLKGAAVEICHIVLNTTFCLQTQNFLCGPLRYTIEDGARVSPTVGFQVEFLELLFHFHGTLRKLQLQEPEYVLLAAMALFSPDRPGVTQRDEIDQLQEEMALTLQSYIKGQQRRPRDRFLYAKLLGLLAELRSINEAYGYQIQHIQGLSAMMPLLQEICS

[3] = biological target: T3, Retinoic acid receptor beta (Homo sapiens, UniProt P10826); format: functional, cell-based
T3 sequence (P10826 whole entry): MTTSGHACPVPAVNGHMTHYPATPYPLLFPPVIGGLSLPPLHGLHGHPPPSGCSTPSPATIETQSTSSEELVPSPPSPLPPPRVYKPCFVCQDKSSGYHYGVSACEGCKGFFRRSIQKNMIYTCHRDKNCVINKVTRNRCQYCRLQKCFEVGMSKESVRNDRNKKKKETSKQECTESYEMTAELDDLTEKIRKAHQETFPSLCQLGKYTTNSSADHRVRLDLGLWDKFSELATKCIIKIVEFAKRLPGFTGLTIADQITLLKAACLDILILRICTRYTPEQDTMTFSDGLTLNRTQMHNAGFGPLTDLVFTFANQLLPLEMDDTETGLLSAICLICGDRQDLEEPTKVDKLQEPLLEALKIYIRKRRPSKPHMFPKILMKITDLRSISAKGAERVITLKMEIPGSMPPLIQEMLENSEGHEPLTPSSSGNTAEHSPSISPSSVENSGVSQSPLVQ

[4] = biological target: T4, Androgen receptor (Homo sapiens, UniProt P10275)
T4 sequence (P10275 whole entry): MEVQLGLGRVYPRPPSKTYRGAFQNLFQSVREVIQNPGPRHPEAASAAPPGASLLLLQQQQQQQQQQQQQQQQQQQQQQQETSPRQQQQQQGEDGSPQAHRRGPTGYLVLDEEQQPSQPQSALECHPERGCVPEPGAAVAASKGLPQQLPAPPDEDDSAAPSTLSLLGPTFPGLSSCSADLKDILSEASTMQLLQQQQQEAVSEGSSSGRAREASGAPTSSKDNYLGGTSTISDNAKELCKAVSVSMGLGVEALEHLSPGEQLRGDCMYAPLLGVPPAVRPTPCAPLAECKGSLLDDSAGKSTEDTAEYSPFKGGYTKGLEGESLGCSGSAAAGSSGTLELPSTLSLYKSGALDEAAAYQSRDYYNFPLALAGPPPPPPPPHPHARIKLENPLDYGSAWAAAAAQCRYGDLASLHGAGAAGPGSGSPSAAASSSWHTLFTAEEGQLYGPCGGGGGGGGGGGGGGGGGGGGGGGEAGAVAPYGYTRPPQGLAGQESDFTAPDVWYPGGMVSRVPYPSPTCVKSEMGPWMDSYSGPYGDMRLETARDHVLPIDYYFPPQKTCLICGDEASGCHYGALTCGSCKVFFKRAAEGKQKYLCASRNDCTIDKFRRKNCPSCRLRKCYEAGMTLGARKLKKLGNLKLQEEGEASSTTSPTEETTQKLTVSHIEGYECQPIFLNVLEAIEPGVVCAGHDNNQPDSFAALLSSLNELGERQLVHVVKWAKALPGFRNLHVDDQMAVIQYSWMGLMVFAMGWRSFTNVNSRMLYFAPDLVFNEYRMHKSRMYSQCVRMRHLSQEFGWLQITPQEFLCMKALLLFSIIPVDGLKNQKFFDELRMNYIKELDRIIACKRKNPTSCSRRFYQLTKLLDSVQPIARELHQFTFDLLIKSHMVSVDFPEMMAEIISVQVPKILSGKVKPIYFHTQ

[5] = biological target: T5, Alpha-1A adrenergic receptor (Homo sapiens, UniProt P35348)
T5 sequence (P35348 whole entry): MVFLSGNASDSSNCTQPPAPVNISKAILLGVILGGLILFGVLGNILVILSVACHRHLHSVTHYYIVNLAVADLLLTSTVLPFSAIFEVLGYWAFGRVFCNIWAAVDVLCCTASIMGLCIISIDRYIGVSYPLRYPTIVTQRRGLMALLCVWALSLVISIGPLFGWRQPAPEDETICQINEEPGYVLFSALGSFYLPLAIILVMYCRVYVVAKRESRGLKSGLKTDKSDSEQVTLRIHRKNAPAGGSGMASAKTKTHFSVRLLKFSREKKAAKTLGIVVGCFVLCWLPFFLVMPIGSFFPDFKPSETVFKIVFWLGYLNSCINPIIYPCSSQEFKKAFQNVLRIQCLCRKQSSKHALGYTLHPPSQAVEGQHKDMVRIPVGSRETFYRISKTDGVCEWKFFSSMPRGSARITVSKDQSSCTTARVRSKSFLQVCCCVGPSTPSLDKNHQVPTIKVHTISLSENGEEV
Further: assay procedure not described here.

Row | AC50 [1] [µM] | AC50 [2] [µM] | AC50 [3] [µM] | AC50 [4] [µM] | AC50 [5] [µM] | Compound
1 | > 30 | > 10 | > 30 |  |  | CC(C)c1c(C(=O)Nc2ccccc2)c(-c2ccccc2)c(-c2ccc(F)cc2)n1CC[C@@H](O)C[C@@H](O)CC(=O)O [ATORVASTATIN]
2 |  |  |  | > 30 | > 30 | BIVALIRUDIN

Reference: ChEMBL document CHEMBL5291721, “A preclinical secondary pharmacology resource illuminates target-adverse drug reaction associations of marketed drugs” (Nat Commun, 2023)
